This note sets out measurements from publication PMC9186491, “Novel Small Molecule Tyrosine Kinase 2 Pseudokinase Ligands Block Cytokine-Induced TYK2-Mediated Signaling Pathways” (Frontiers in Immunology, 2022).

In one data set the target is T1, JAK1 JH1 kinase domain (Homo sapiens, UniProt P23458).
T1 construct: purchased Eurofins DiscoverX Corporation (contract assay)
The data set can be described thus: KdELECT competition binding assay, JAK1 JH1. The note with it: read-out: JAK Binding Selectivity (Kd) Catalytical Domain (JH1) JAK1. On the procedure: The KdELECT competition assays were performed to test the binding affinity of compounds to the JH1 kinase region or JH2 pseudokinase region in TYK2 or JAK by ligand competition with JH1 or JH2 protein segments. The assay was carried out at Eurofins DiscoverX Corporation following the established standard protocol (DiscoverX, San Diego, CA). In this assay, compounds that bind to the kinase or pseudokinase protein regions prevent the protein binding to the immobilized ligand and reduce the amount of kinase matter captured on the solid surface. […] Dissociation constants (Kds) for test compound-kinase interactions are calculated by measuring the amount of kinase captured on the solid support as a function of the test compound concentration. […] The ligated beads were blocked with excess biotin and washed with blocking buffer to remove unbound ligand and to reduce nonspecific binding. […] All reactions were performed in polypropylene 384-well plates with a final volume of 20 μL. […] The beads were then re-suspended in the elution buffer and incubated at room temperature with shaking for 30 minutes. The kinase concentration in the eluant was measured by qPCR. Two replicates were performed and averaged to obtain the Kd measurement.

Data set [1] relates to IFNα-induced TYK2/phosphoSTAT1 (Tyr701) in Kit225 T cells. Put plainly: Kit225 T cell assay for IFNα-induced TYK2/phosphoSTAT1 activity. In kind it is cell-based, human. The note with it: Homo sapiens; Kit225 cells, 80 ng/mL IFNα, AlphaLISA; read-out: IC50 IFNα-induced-STAT1 Phosphorylation. On the procedure:
The cells were treated with serially diluted compounds for 1 hour and stimulated with 80 ng/mL human recombinant IFNα (R&D Systems) for 15 minutes. The treated cells were then lysed and cellular phosphorylated-STAT1 (Tyr701) levels were measured by AlphaLISA (PerkinElmer, Cat#ALSU-PST1) according to the manufacturer’s instructions.
For orientation: Alpha assays give light when donor and acceptor beads are brought close together.

Data set [2] concerns IFNα-induced TYK2-mediated IRF activity in Jurkat-Dual T cells. The data set can be described thus: Jurkat T cell reporter assay for IFNα-induced TYK2-mediated IRF activity. In kind it is cell-based. The note with it: Homo sapiens, SEAP. An excerpt: Jurkat-Dual™ T cells (In vivogen, jktd-isnf) were purchased from In vivogen (San Diego, CA). The cells feature the dual-reporter system, with a Lucia luciferase gene driven by an interferon-β (IFN-β) minimal promoter fused to the NFκB consensus transcriptional response element and the c-Rel binding site, as well as a secreted embryonic alkaline phosphatase (SEAP) reporter gene under the control of an IFN-stimulated gene 54 (ISG54) minimal promoter in conjunction with five IFN-stimulated response elements. With the dual-reporter design, Jurkat-Dual™ cells allow the simultaneous investigation of both the NFκB pathway, by monitoring the Lucia luciferase, and the interferon regulatory factor (IRF) pathway, by assessing the activity of SEAP. In this study, the Jurkat-Dual™ T cells were plated at a sterilized U-shaped 96-well plate in RPMI (Thermo Fisher) containing 10% heat-inactivated Fetal Bovine Serum (FBS) (Thermo Fisher) and 100 U/mL Penicillin-Streptomycin (Thermo Fisher) at a density of 2.0 × 10^6/mL. Seeded cells were treated with serially diluted compounds and stimulated with 80 ng/mL human recombinant IFNα (Biolegend, # 592702) overnight in a humidified, 5% CO2 cell culture incubator at 37°C. Activity of SEAP was then detected from the cell cultured supernatant according to the manufacturer’s instructions.

For data set [3], the system named is IFNα-induced CXCL10 production in human whole blood. Put plainly: IFNα-induced CXCL10 production in human whole blood. In kind it is cell-based. The note with it: human whole blood, IFNα 16 hours; read-out: TYK2-associated IFNα-induced-CXCL10 Production in Human Whole Blood: IC50. On the procedure: Human whole blood [drawn with Ethylenediaminetetraacetic acid (EDTA) as anti-coagulant] was obtained from Zen-Bio Inc. (Durham, NC). […] The plasma was collected for detection of C-X-C motif chemokine 10 (CXCL10, IP10) secretion. CXCL10 was measured by Human CXCL10/IP-10 AlphaLISA Kit (PerkinElmer, #AL259 C/F) according to the manufacturer’s instructions.

In a further data set the target is JAK2 (Homo sapiens, UniProt O60674). The data set can be described thus: Z'LYTE JAK kinase inhibition assay, JAK2. It is filed as biochemical. The following applies: read-out: JAK Catalytic Selectivity (IC50) JAK2.
JAK2, sequence (O60674 whole entry): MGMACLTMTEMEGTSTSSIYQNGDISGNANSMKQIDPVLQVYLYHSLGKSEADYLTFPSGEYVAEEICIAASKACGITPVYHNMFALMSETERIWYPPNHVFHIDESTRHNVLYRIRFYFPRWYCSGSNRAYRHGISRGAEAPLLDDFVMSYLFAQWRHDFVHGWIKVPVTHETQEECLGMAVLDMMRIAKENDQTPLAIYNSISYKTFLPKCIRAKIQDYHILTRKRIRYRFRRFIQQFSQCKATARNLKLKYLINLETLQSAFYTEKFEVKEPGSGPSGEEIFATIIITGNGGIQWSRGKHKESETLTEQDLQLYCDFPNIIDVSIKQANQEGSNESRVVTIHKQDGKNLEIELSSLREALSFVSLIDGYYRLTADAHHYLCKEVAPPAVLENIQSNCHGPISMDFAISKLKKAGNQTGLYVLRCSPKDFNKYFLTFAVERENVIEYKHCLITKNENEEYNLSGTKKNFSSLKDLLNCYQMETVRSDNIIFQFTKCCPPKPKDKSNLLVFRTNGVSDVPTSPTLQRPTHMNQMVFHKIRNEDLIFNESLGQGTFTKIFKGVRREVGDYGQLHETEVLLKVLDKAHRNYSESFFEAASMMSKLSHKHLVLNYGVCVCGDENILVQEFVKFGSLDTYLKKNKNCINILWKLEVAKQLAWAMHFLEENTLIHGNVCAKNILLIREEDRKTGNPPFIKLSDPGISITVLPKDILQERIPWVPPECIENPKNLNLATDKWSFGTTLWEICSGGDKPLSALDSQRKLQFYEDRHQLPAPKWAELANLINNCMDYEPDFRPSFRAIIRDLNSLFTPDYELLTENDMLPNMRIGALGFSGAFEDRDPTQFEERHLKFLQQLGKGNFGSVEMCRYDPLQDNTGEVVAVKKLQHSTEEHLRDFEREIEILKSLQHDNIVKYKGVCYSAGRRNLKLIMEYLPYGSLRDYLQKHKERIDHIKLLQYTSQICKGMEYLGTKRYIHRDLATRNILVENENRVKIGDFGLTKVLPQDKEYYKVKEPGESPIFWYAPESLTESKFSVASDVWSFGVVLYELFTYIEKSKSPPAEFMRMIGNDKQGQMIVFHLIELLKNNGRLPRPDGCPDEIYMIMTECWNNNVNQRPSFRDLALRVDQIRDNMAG
The next data set can be described thus: LM T1/2, Mk. In kind it is in vitro ADME. The note with it: monkey, liver microsomes. (Liver microsomes are a subcellular fraction often used to study metabolism.)
The next data set in a line: PPB, R. In kind it is in vitro ADME. The following applies: rat, plasma.
A further data set can be described thus: Solubility (PBS/Fas/Fes). It is filed as physicochemical.
The target of another data set is hERG (Homo sapiens, UniProt Q12809). Put plainly: hERG IC50. On the technique in general: Block of hERG is tested as a sign of cardiac risk.
hERG, sequence (Q12809 whole entry): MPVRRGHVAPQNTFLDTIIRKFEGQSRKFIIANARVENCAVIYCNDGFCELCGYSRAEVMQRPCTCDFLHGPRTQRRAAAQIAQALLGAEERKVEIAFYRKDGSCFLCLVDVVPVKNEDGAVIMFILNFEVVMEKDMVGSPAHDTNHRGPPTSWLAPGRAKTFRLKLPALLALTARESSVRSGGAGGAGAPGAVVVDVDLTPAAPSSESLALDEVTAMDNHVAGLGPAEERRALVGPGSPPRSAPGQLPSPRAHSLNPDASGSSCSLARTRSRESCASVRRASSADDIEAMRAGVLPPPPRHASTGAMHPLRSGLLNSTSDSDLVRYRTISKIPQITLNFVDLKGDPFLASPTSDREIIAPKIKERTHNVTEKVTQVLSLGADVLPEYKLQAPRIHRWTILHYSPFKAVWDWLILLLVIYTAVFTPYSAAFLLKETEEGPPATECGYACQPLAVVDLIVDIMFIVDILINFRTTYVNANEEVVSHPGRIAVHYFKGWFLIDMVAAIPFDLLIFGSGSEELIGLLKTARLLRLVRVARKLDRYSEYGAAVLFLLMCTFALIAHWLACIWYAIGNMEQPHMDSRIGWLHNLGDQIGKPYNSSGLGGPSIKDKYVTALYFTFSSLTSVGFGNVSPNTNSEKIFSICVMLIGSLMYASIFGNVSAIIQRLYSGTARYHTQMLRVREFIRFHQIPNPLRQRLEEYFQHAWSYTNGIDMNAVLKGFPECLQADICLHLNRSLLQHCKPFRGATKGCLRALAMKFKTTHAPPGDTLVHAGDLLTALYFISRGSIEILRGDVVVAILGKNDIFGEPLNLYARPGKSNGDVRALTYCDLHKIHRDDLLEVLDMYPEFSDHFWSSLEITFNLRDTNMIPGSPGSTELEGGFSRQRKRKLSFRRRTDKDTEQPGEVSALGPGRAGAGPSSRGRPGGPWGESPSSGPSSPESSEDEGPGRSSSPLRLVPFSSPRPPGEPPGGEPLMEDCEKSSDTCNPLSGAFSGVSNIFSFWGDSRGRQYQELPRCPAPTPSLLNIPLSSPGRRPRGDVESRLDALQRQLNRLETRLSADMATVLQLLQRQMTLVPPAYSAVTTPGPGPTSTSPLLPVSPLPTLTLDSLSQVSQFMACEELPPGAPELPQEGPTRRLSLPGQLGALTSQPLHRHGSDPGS
Where [4] appears, read: FaSSIF, read-out: Solubility, Fas.
The mark [5] stands for this setting: FeSSIF (Fes [sic]), fessif, read-out: Solubility, Fes.
[6] abbreviates: PBS, aqueous buffer, read-out: Solubility, PBS.

≈ marks a conversion by molar mass, not a printed value. Read-outs that look alike come from different tables or passages of the source. Bounds are passed on as bounds.

T1 sequence (P23458 875-1153 limits assumed): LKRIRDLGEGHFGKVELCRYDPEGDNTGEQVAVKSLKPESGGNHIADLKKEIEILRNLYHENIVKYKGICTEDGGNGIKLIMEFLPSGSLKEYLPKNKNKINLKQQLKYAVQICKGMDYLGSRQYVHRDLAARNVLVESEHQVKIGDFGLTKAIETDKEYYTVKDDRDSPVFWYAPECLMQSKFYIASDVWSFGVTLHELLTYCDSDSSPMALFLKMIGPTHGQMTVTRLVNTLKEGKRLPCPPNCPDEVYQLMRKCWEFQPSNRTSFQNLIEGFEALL

One may read the Kd as a measure of binding affinity in units of concentration. By IC50 is commonly meant the midpoint of a concentration-inhibition curve. A word on the half-life: it is the time in which the quantity being followed falls by half. Lower therefore signals rapid decline. As usually defined, the fraction unbound is the share of the substance not bound to proteins or other matrix. Read a high fraction unbound as much free substance. By solubility is commonly meant the dissolved amount per volume that the medium holds. In the case of `CNC(=O)c1nnc(NC(=O)N2CCC2)cc1Nc1cccc(-c2ncn(C)n2)c1OC` [SHR8751], the dissociation constant (Kd) on JAK1 JH1 kinase domain was greater than 20000 nM. Moreover, the half-inhibitory concentration (IC50) was 37 nM in data set [1]; 48 nM in data set [2]; 460 nM in data set [3]; greater than 10000 nM on JAK2; greater than 30000 nM at hERG. Moreover, the half-life in the data set “LM T1/2, Mk” was greater than 99 min. In the data set “PPB, R”, the free fraction (fraction unbound) was found to be 0.329. For the same molecule, the solubility in “Solubility (PBS/Fas/Fes)” (setting [4]) came to 60.7 µM (≈ 26.6 µg/mL); in “Solubility (PBS/Fas/Fes)” (setting [5]) it was 60.9 µM (≈ 26.6 µg/mL); in the data set “Solubility (PBS/Fas/Fes)” (setting [6]), 17.6 µM (≈ 7.7 µg/mL).

Consider `CNC(=O)c1nnc(NC(=O)C2CC2)c2[nH]c(-c3ccc(N)cc3OC)cc12` [SHR2396], for which, on JAK1 JH1 kinase domain, the Kd was greater than 20000 nM. Moreover, the half-inhibitory concentration (IC50) was 15 nM in data set [1], 9.7 nM in data set [2] and greater than 10000 nM at JAK2. Besides, the half-life in “LM T1/2, Mk” came to 50 min. Further, in “PPB, R”, the fraction unbound amounted to 0.0474. The solubility in the data set “Solubility (PBS/Fas/Fes)” (setting [4]) worked out at 8.6 µM (≈ 3.27 µg/mL); in the data set “Solubility (PBS/Fas/Fes)” (setting [5]), 8.2 µM (≈ 3.12 µg/mL); in the data set “Solubility (PBS/Fas/Fes)” (setting [6]) it was 0.34 µM (≈ 0.129 µg/mL).

`[2H]C([2H])([2H])NC(=O)c1nnc(NC(=O)N2CCC2)cc1Nc1cccc(-c2ncn(C)n2)c1OC` [SHR9332]: at JAK1 JH1 kinase domain, the Kd is greater than 20000 nM. For the same molecule, the IC50 in [1] is 76 nM; in [2], 55 nM; in data set [3] it was 480 nM; at JAK2, greater than 10000 nM; at hERG, greater than 30000 nM. The same molecule returned a half-life in the data set “LM T1/2, Mk” of 30.9 min. This molecule yielded a free fraction (fraction unbound) in “PPB, R” of 0.254. The solubility amounted to 71.4 µM (≈ 31.5 µg/mL) in the data set “Solubility (PBS/Fas/Fes)” (setting [4]), 108 µM (≈ 47.6 µg/mL) in the data set “Solubility (PBS/Fas/Fes)” (setting [5]) and 25.6 µM (≈ 11.3 µg/mL) in “Solubility (PBS/Fas/Fes)” (setting [6]).
